Like-named read-outs stand apart in the source and are kept apart here.

What all share (assay type): biochemical
In assay [1] the target is 320 wild-type protein kinases (Homo sapiens, UniProt P19525). The note with it: singlicate. The text has this:
(§1) Table S4. Profiling of two compounds at two concentrations against 320 wild-type protein kinases; singlicate measurement; Residual activities (% of control).

The target in assay [2] is T1, 320 wild-type protein kinases (Homo sapiens, UniProt O14733).
T1 sequence (O14733 1-419): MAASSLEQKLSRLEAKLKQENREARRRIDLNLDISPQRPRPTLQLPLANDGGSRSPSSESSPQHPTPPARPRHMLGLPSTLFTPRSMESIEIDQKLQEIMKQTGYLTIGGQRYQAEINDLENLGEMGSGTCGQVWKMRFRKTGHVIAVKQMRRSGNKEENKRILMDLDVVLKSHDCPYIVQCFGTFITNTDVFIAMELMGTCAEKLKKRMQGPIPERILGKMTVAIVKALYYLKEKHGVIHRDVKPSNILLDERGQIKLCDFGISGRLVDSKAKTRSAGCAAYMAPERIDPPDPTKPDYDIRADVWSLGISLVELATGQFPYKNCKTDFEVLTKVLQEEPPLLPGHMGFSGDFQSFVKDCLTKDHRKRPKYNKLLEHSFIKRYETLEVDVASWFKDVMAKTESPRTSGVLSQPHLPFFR
To be noted: singlicate.
Excerpt: as §1

Assay [3] has as its target T2, 320 wild-type protein kinases (Homo sapiens, UniProt Q12851).
T2 sequence (Q12851 1-820): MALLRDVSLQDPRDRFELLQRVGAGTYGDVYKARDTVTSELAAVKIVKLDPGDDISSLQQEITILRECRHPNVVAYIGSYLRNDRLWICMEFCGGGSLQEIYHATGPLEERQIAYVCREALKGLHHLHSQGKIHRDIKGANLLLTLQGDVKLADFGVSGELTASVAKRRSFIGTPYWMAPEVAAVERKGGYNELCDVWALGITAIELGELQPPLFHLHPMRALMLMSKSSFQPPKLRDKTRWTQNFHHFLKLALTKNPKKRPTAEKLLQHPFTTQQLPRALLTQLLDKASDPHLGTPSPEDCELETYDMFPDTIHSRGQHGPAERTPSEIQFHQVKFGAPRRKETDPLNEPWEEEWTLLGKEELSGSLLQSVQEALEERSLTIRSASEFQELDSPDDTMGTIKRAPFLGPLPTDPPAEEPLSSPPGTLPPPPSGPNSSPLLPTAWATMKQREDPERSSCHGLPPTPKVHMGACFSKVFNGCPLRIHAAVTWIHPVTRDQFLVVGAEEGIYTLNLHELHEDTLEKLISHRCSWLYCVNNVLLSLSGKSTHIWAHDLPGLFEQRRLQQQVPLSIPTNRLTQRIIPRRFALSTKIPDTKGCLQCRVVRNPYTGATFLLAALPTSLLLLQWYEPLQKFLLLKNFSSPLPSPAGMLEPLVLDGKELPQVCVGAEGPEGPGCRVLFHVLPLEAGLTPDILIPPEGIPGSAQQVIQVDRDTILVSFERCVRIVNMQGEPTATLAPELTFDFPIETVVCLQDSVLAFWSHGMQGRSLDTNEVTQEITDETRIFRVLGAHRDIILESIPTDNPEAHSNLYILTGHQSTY
To be noted: singlicate.
Excerpt: as §1

Assay [4] addresses 320 wild-type protein kinases (Homo sapiens, UniProt P34947). The note with it: singlicate.
Excerpt: as §1

The target of assay [5] is T3, 320 wild-type protein kinases (Homo sapiens, UniProt Q99759).
T3 sequence (Q99759 1-626): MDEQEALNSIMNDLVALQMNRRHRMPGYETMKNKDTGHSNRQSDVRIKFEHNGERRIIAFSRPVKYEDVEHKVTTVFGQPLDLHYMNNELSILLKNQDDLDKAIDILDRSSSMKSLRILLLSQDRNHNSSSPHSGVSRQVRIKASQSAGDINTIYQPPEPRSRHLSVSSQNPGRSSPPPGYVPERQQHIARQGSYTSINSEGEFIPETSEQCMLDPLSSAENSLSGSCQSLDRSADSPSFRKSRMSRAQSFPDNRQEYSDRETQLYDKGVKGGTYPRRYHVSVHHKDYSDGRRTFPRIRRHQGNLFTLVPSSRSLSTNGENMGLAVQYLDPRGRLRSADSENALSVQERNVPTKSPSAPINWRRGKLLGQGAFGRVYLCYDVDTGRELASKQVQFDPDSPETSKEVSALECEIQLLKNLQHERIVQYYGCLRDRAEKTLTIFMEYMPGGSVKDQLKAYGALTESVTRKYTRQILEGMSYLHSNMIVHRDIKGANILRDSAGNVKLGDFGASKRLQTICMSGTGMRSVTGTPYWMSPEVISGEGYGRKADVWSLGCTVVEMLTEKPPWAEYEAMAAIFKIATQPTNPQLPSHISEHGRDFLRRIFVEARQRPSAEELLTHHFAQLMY
To be noted: singlicate.
Excerpt: as §1

Assay [6] addresses T4, 320 wild-type protein kinases (Homo sapiens, UniProt Q9H093).
T4 sequence (Q9H093 1-628): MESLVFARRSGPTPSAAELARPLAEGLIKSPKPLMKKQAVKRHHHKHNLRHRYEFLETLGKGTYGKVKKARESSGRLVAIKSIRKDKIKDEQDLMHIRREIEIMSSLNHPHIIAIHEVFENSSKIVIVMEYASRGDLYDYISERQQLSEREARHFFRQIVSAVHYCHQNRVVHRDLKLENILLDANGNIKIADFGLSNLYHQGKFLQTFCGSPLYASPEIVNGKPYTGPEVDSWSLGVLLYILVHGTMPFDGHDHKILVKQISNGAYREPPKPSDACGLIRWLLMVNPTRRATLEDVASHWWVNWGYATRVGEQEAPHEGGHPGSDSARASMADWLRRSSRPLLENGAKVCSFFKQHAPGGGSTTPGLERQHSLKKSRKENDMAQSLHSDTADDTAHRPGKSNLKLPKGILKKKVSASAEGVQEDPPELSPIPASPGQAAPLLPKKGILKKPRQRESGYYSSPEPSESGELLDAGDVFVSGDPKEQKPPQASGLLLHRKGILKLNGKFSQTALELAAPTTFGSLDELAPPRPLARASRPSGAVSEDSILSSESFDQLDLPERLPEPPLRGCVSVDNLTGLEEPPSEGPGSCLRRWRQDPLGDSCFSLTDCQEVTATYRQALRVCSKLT
The note with it: kinase SNARK, singlicate.
Excerpt: as §1

320 wild-type protein kinases (Homo sapiens, UniProt P34947), sequence (P34947 whole entry): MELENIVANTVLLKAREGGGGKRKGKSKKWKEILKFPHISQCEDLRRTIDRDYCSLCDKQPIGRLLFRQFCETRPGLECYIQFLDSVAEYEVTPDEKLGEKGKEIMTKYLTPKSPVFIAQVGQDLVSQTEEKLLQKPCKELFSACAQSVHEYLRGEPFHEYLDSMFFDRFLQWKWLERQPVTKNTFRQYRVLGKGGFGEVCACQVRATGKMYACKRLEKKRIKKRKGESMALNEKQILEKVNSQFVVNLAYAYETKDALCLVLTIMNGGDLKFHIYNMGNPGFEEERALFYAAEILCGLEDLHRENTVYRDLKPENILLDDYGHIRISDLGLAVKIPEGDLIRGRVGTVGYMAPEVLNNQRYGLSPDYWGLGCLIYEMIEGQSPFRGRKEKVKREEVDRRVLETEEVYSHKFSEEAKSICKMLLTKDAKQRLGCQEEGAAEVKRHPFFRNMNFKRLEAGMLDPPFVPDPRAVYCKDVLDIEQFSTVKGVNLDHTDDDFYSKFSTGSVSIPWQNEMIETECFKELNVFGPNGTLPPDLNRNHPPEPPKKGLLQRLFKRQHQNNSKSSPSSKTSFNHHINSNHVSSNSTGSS
320 wild-type protein kinases (Homo sapiens, UniProt P19525), sequence (P19525 whole entry): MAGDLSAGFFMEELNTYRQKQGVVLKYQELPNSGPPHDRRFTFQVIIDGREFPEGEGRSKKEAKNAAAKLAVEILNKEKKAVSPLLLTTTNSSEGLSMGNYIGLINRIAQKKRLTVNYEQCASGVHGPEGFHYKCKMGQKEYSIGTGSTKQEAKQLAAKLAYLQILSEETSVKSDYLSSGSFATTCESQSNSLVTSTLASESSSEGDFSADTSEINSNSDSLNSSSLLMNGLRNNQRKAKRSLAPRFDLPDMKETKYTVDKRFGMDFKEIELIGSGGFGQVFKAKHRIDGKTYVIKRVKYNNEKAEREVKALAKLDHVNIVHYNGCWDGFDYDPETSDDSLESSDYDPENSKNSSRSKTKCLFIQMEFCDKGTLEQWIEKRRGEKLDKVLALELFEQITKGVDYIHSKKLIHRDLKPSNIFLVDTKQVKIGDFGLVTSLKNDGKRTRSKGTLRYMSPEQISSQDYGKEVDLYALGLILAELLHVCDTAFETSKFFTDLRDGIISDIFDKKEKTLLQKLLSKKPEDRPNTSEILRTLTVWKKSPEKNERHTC

Turning to `C#Cc1cc(Nc2ncnc3cc(I)ccc23)ccc1Cl` [Compound 41], the Residual activity in assay [1] (EIF2AK2, 1.0E-06 M) is on record as 58 % of control; in assay [1] (EIF2AK2, 1.0E-07 M), 72 % of control; in assay [2] (MKK7, 1.0E-06 M), 120 % of control; in assay [2] (MKK7, 1.0E-07 M), 86 % of control; in assay [3] (MAP4K2, 1.0E-06 M), 94 % of control; in assay [3] (MAP4K2, 1.0E-07 M), 99 % of control. Moreover, the Residual activity is 111 % of control in assay [4] (GRK5, 1.0E-06 M); 108 % of control in assay [4] (GRK5, 1.0E-07 M); 107 % of control in assay [5] (MEKK3, 1.0E-06 M); 106 % of control in assay [5] (MEKK3, 1.0E-07 M). The entries for the “Residual activity, SNARK” value in assay [6] (assay conc. 1.0E-06 M) and in assay [6] (assay conc. 1.0E-07 M) were 83 % of control and 101 % of control, respectively.

As for `C#Cc1cc(Nc2ncnc3cc(OC)c(OC)cc23)ccc1Cl` [Compound 45], the Residual activity is reported as 77 % of control in assay [1] (EIF2AK2, 1.0E-06 M); 77 % of control in assay [1] (EIF2AK2, 1.0E-07 M); 98 % of control in assay [2] (MKK7, 1.0E-06 M); 112 % of control in assay [2] (MKK7, 1.0E-07 M); 113 % of control in assay [3] (MAP4K2, 1.0E-06 M); 105 % of control in assay [3] (MAP4K2, 1.0E-07 M). In addition, the Residual activity in assay [4] (GRK5, 1.0E-06 M) is 111 % of control; in assay [4] (GRK5, 1.0E-07 M) it was 107 % of control; in assay [5] (MEKK3, 1.0E-06 M), 117 % of control; in assay [5] (MEKK3, 1.0E-07 M), 115 % of control. The “Residual activity, SNARK” value in assay [6] (assay conc. 1.0E-06 M) is 87 % of control; in assay [6] (assay conc. 1.0E-07 M), 88 % of control.

Source of the values: PMC9329436, “Optimization of the 4-anilinoquin(az)oline scaffold as epidermal growth factor receptor (EGFR) inhibitors for chordoma utilizing a toxicology profiling assay platform” (Scientific Reports, 2022).
